In PMC7307922 (Journal of Medicinal Chemistry, 2020):
Where “and” joins values, the source holds several entries; their conditions need not be identical. Identical values can stand only once.

Legend:
[1] = target: T1, mFFA3 (Mus musculus, UniProt Q3UFD7); assay: cAMP assay, mFFA3; format: cell-based; parameters: expressed in transfected cells; host or cells: HEK293 Flp-In T-REx, doxycycline-induced; conditions: for loss of potency from human to rodent species: hFFA3 vs rFFA3 and mFFA3, cAMP
T1 sequence (Q3UFD7 1-319): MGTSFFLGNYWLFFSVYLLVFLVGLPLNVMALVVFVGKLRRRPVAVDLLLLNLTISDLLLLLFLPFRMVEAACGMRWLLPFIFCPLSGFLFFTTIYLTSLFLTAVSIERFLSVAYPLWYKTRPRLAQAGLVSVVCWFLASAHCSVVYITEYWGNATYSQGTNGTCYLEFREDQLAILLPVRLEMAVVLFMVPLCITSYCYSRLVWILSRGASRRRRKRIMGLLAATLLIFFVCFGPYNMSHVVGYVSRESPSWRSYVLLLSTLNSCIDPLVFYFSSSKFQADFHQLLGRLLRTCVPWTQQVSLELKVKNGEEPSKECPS
Procedure: (§1) With several compounds with improved properties in hand, we wished to investigate the suitability of the compounds as tools for in vivo studies in rodents. Because of the moderate potency and low solubility associated with this series, it has been presumed that they are poorly suited as in vivo tools.
(§2) HEK293 Flp-In T-Rex cells stably transfected with FFA3-eYFP receptors were incubated overnight with doxycycline to induce expression, then harvested, and cryopreserved. On the day of each experiment, cells were thawed and resuspended in stimulation buffer. Assays were carried out using a 384-well plate format with 3000 cells/well using the CisBio cAMP GS dynamic kit as per manufacturer’s protocol. Compounds were tested for the ability to inhibit 0.3 μM forskolin-induced cAMP production after co-incubation for 1 h. Reactions were measured using a PHERAstar FS plate reader (BMGLabtech, Aylesbury, UK).

[2] = Stability toward mouse liver microsomes; conditions: remaining after 40 min incubation with MLMs
Procedure: The study was performed by Bienta (www.bienta.net). Mouse hepatic microsomes were isolated from pooled and perfused livers of male BALB/c mice (n = 50). Isolation was performed according to the standard protocol.[36]
Microsomal incubations were carried out in 96-well plates in 5 aliquots of 40 μL each (one for each time point). Liver microsomal incubation medium comprised PBS (100 mM, pH 7.4), MgCl2 (3.3 mM), NADPH (3 mM), glucose-6-phosphate (5.3 mM), and glucose-6-phosphate dehydrogenase (0.67 units/mL) with 0.42 mg of liver microsomal protein per ml. In the control reactions, the NADPH-cofactor system was substituted with PBS. […] Each reaction was performed in duplicates. Five time points over 40 min were analyzed. The reactions were stopped by adding 12 volumes of 90% acetonitrile–water to incubation aliquots, followed by protein sedimentation by centrifuging at 5500 rpm for 3 min. […]. Supernatants were analyzed using HPLC-MS/MS on an API 3000 PE instrument.

[3] = in vivo; conditions: male, BALB/c, mouse
Procedure: The study was performed by Bienta (www.bienta.net). Study design, animal selection, handling, and treatment were all in accordance with the Enamine PK study protocols and Institutional Animal Care and Use Guidelines. Animal treatment and plasma samples preparation were conducted by the Animal Laboratory personnel at Enamine/Bienta. […] The animals were randomly assigned to the treatment groups before the pharmacokinetic study; all animals were fasted for 4 h before dosing. […] Each of the time point treatment group included four animals. There was also a control group of two animals. […] Dosing volumes of compounds or vehicle was 5 mL/kg. Mice were injected iv with 2,2,2-tribromoethanol at the dose of 150 mg/kg prior to drawing the blood. Blood collection was performed from the orbital sinus in microtainers containing K2EDTA. Animals were sacrificed by cervical dislocation after the blood sample collection. All samples were immediately processed, flash-frozen, and stored at −70 °C until subsequent analysis. […] After mixing by pipetting and centrifuging for 4 min at 6000 rpm, 0.5–1 μL of each supernatant was analyzed by HPLC-MS/MS on an API 3000 PE instrument.

[4] = target: T2, human FFA2 (Homo sapiens, UniProt O15552); assay: FFA2 counterscreen, cAMP assay; format: cell-based; conditions: 10 μM
T2 construct: expressed in transfected cells; host or cells: Flp-In T-REx 293, doxycycline-induced
T2 sequence (O15552 1-330): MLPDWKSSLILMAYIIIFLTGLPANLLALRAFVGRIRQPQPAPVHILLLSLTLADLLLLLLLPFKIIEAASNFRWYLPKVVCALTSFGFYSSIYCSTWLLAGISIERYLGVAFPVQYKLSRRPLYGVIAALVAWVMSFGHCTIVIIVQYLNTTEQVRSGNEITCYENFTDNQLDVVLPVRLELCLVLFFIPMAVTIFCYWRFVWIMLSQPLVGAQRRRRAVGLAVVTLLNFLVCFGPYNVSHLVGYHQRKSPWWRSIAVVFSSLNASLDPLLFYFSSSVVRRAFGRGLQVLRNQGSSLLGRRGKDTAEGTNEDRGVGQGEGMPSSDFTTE
Procedure: Counter screening against FFA1, FFA2 , FF A4 and GPR84 […]
Counter screening for FFA2 was carried out using a cAMP assay. Flp-In T-Re x 293 cells generated to stably express human FFA2 tagged at is C-terminal with eYFP were first treated with doxycycline (100 ng/mL) overnight to induce receptor expressi on. Cells were then detached and used directly in an HT R-FRET cAMP assay (CisBio) according to the manufacturer’s protocol and measured using a Pherastar FS plate reader (BMG Labtech, Aylesbury, UK). For these experiments, 2000 cells were used per well in a low volume 384-well plate and compounds were tested against their ability to inhibit the cAMP response to 1 µM forskolin for 30 min. […]

[5] = log D7.4 measurement; format: physicochemical; conditions: pH 7.4; read-out: logD7.4
Procedure: Solubility and log D7.4 measurements were performed in accordance to the previously published procedures.[35]

[6] = target: T3, rFFA3 (Rattus norvegicus, UniProt B2GV46); assay: cAMP assay, rFFA3; format: cell-based
T3 construct: expressed in transfected cells; host or cells: HEK293 Flp-In T-REx, doxycycline-induced
T3 sequence (B2GV46 1-319): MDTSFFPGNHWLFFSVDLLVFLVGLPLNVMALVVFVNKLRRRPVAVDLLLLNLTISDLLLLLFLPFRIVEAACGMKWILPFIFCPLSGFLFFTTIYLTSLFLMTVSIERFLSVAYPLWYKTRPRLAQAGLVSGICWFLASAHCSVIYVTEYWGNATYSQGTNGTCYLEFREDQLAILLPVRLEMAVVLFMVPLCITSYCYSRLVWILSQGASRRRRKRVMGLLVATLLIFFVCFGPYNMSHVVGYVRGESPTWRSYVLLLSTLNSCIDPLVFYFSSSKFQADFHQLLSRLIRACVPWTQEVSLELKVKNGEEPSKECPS
Procedure: as §1, §2

## CC1=C(C(=O)Nc2ccccc2C)C(c2ccco2)C2=C(CCCC2=O)N1 (centres unmarked) [Compound 1, 4-(Furan-2-yl)-2-methyl-5-oxo-N-(o-tolyl)-1,4,5,6,7,8-hexahydroquinoline-3-carboxamide, reference compound]
[1]
  loss of potency from human to rodent species: 3–10 fold
  cAMP pEC50 (mFFA3): 5.42 ± 0.04
[2]
  MLM (%) remaining: 52%
[3]; iv, 5 mg/kg
  Vd at 24 h: 0.759 L/kg
  clearance at 24 h: 8.45 mL/min/kg
  half-life at 24 h: 62.2 min
[3]; po, 10 mg/kg
  AUC(0-inf) at 24 h: 14400 ng·h/mL
  Cmax at 24 h: 7470 ng/mL
  Tmax at 24 h: 15 min
  bioavailability at 24 h: 73%
  half-life at 24 h: 89.7 min
[4]
  activity at FFA2: No significant activity
[5]
  logD: 2.05
[6]
  cAMP pEC50 (rFFA3): 5.87 ± 0.07

## CC1=C(C(=O)Nc2cc(Cl)ccc2Cl)C(C2CCCC2)C2=C(CCCC2=O)N1 (centres unmarked) [Compound 63, 4-Cyclopentyl-N-(2,5-dichlorophenyl)-2-methyl-5-oxo-1,4,5,6,7,8-hexahydroquinoline-3-carboxamide]
[1]
  cAMP pEC50 (mFFA3): 5.96 ± 0.04
[2]
  MLM (%) remaining: 41%
[3]; iv, 5 mg/kg
  Vd at 24 h: 1.11 L/kg
  clearance at 24 h: 20.3 mL/min/kg
  half-life at 24 h: 37.8 min
[3]; po, 10 mg/kg
  AUC(0-inf) at 24 h: 5420 ng·h/mL
  Cmax at 24 h: 3800 ng/mL
  Tmax at 24 h: 15 min
  bioavailability at 24 h: 66%
  half-life at 24 h: 51.8 min
[4]
  activity at FFA2: No significant activity
[5]
  logD: > 4.3
[6]
  cAMP pEC50 (rFFA3): 6.39 ± 0.03

## CC1=C(C(=O)Nc2cc(Cl)ccc2Cl)C(c2ccco2)C2=C(CCCC2=O)N1 (centres unmarked) [Compound 16, reference compound]
[1]
  loss of potency from human to rodent species: 3–10 fold
  cAMP pEC50 (mFFA3): 5.88 ± 0.05
[2]
  MLM (%) remaining: 1−2% and 1%
[3]; iv, 5 mg/kg
  Vd at 24 h: 0.629 L/kg
  clearance at 24 h: 19.6 mL/min/kg
  half-life: 20 min
  half-life at 24 h: 22.3 min
[3]; po, 10 mg/kg
  AUC(0-inf) at 24 h: 7050 ng·h/mL
  Cmax at 24 h: 5740 ng/mL
  Tmax at 24 h: 30 min
  bioavailability at 24 h: 88%
  half-life at 24 h: 60.8 min
[4]
  activity at FFA2: No significant activity
[5]
  logD: 3.19
[6]
  cAMP pEC50 (rFFA3): 6.34 ± 0.04

## CCCC1C(C(=O)Nc2cc(Cl)ccc2Cl)=C(C)NC2=C1C(=O)CCC2 (centres unmarked) [Compound 57, N-(2,5-Dichlorophenyl)-2-methyl-5-oxo-4-propyl-1,4,5,6,7,8-hexahydroquinoline-3-carboxamide]
[2]
  MLM (%) remaining: 1−2% and 1%
[3]; iv, 5 mg/kg
  Vd at 24 h: 1.15 L/kg
  clearance at 24 h: 70.3 mL/min/kg
  half-life at 24 h: 11.4 min
[3]; po, 10 mg/kg
  AUC(0-inf) at 24 h: 563 ng·h/mL
  Cmax at 24 h: 561 ng/mL
  Tmax at 24 h: 30 min
  bioavailability at 24 h: 36%
  half-life at 24 h: 63.5 min
[4]
  activity at FFA2: No significant activity
[5]
  logD at 24 h: 4.25
